Results taken from patent US7238813B2, “Chemical compounds” (Smithkline Beecham Corporation, priority 2000, dated 2007).
Where a name gives a salt, the structure may show the parent alone.

How the values were obtained:
[1] = molecular target: T1, GST-TIE2 (intracellular domains of human TIE2) (Homo sapiens, UniProt Q02763); assay: TIE-2 enzyme assay (TIE2-E), LANCE method; format: biochemical; conditions: 80 uM ATP
T1 construct: made in house
Method in brief: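 Baculovirus GST-TIE2 (human intracellular domain, aa 762–1104) preactivated 30 min at RT with 2 mM ATP, then reacted 30 min at RT with 1 μM D1-15 peptide, 80 uM ATP, 10 mM MgCl2, pH 7.4, 2.4% DMSO. EDTA-stopped; LANCE Eu-anti-pTyr/streptavidin-APC read-out. IC50 by nonlinear regression, reported as pIC50.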

GST-VEGFR2 = molecular target: T2, GST-VEGFR2 (Homo sapiens, UniProt P35968); assay: VEGF-R2 enzyme assay (VEGF-E), LANCE method; format: biochemical; conditions: 75 μM ATP
T2 construct: GST-VEGFR2, baculovirus expressed recombinant constructs of the intracellular domains of human TIE2 tagged by GST; made in house

[2] = system: Human umbilical cord endothelial cells (HUVEC); assay: VEGF-driven cellular proliferation assay: BrdU incorporation assay (VEGF-C); format: cell-based; set-up: key to VEGF-C: + = pIC50 of 5.0–6.0; ++ = pIC50 of 6.0–7.0; +++ = pIC50 of > 7.0; − = a negative or inconclusive result; conditions: for IC50: Homo sapiens
Description: VFGF-driven Cellular Proliferation Assay: BrdU Incorporation Assay (VEGF-C)
Human umbilical cord endothelial cells (HUVEC, Clonetics, CC2519) were passaged in Type I collagen-coated 100-mm petridishes in EGM-MV medium (Clonetics, CC3125) at 37° C. in a humidified 5% CO2, 95% air incubator. (HUVEC passaged more than 6 times in vitro were discarded and not subjected to assaying.) The cells were harvested using trypsin/EDTA, counted using a haemocytometer and plated at 5000 cells/well in a Type I-collagen coated 96-well plate (Becton Dickinson, 354407) in M199 medium (Gibco BRL, 12340-030) containing 5% FBS (Hyclone, A 1115-L) and gentamicin (at 50 μg/ml, Gibco BRL). After incubation overnight at 37° C., the media were replaced with 100 μl of M199 serum-free medium containing compounds at various concentrations with 0.6% DMSO and gentamicin. The compounds were diluted in serum-free M199 medium from 10 mM stock solutions prepared in 100% DMSO. After a 30 min incubation at 37° C., the cells were fed with 100 μl of serum-free M199 medium containing gentamicin, 0.2% culture-grade bovine serum albumin (BSA, Sigma A1993) and 20 ng/ml of VEGF (R&D systems, 293-VE) or 0.6 ng/ml of basic FGF (R&D systems, 233-FB), and cultured at 37° C. for another 24 h. The cells were pulsed with bromodeoxyuridine (BrdU at 10 μM in serum-free M199) at 37° C. for an additional 24 h. The incorporation of BrdU into the proliferating HUVEC were analyzed using BrdU Cell Proliferation ELISA (Roche Molecular Biochemicals, 1647229) according to the manufacturer's protocols. The optical density at 450 nm was measured with a multilabel counter (ARVO SX, Wallac). The percent inhibition of cell growth was calculated relative to blank control wells. The concentration of test compound that inhibits 50% of cell growth (IC50) was interpolated using nonlinear regression (Levernberg-Marquardt) and the equation, y=Vmax (1−x/(K+x))+Y2, where “K” was equal to the IC50. The IC50, values were converted to pIC50 values, i.e., −log IC50 in Molar concentration.

[3] = molecular target: T3, TIE2 intracellular domain/c-fms extracellular domain (TIE2/c-fms) chimeric protein expressing mouse 3T3 cells (Homo sapiens, UniProt Q02763); assay: TIE-2 autophosphorylation assay (TIE2-C), ELISA; format: cell-based; conditions: TIE2/c-fms 3T3 cells, MCSF activation
T3 construct: a TIE2 intracellular domain/c-fms extracellular domain (TIE2/c-fms) chimeric protein; expressed in transfected cells; host or cells: mouse 3T3 cells
Description: TIE-2 Autophosphorylation Assay (TIE2-C)
The TIE-2 autophosphorylation assay used an ELISA method and a TIE2 intracellular domain/c-fms extracellular domain (TIE2/c-fms) chimeric protein expressing mouse 3T3 cells. This assay measured the autophosphorylation level of TIE2 protein expressed in cells. The cells were cultured in high glucose DMEM (Sigma) containing 10% serum at 37° C. in a humidified 10% CO2, 90% air incubator. The test compound (diluted from a 10 mM stock in DMSO, final DMSO concentration was 0.1%) was incubated with TIE2/c-fms expressing cells for 1 hr in serum free DMEM in 96 well plates followed by the activation of TIE2/c-fms receptor using c-fms ligand, MCSF (macrophage colony stimulating factor). The culture media was removed by aspiration and the cells incubated for at least 30 mins on ice with lysis buffer containing 137 mM NaCl, 2 mM EDTA, 10% glycerol, […] sodium ortho vanadate and complete protease inhibitor cocktail (Roche) in 20 mM Tris-HCl (pH8.0). The cell extracts were transferred into Rat anti-c-fms antibody coated 96 well plates and incubated for 12 hrs at 4° C. The extracts were removed by aspiration and the plate was incubated with biotinylated anti-phosphotyrosine antibody, PT66 (Sigma) and then with HRP (Horseradish Peroxidase)-labeled streptavidin (PIERCE). The optical density at 450 nm derived from HRP catalyzed TMB was measured with an ARVO multilabel counter. (Wallac Berthold Japan). The percent inhibition of activity was calculated relative to blank control wells. The concentration of test compound that inhibits 50% of activity (IC50) was interpolated using nonlinear regression (Levernberg-Marquardt) and the equation, y=Vmax (1−x/(K+x))+Y2, where “K” was equal to the IC50. The IC50 values were converted to pIC50 values, i.e., −log IC50 in Molar concentration.

T1 sequence (Q02763 762-1104): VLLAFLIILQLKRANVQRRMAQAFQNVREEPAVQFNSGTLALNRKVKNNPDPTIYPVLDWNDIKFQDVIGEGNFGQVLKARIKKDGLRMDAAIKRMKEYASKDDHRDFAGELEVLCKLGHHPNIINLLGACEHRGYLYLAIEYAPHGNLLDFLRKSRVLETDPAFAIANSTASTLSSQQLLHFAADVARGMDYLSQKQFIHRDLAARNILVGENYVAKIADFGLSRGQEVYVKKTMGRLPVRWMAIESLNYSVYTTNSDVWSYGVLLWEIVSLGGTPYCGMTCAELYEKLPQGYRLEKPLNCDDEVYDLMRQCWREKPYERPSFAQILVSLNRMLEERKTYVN
T2 sequence (P35968 786-1356 limits assumed): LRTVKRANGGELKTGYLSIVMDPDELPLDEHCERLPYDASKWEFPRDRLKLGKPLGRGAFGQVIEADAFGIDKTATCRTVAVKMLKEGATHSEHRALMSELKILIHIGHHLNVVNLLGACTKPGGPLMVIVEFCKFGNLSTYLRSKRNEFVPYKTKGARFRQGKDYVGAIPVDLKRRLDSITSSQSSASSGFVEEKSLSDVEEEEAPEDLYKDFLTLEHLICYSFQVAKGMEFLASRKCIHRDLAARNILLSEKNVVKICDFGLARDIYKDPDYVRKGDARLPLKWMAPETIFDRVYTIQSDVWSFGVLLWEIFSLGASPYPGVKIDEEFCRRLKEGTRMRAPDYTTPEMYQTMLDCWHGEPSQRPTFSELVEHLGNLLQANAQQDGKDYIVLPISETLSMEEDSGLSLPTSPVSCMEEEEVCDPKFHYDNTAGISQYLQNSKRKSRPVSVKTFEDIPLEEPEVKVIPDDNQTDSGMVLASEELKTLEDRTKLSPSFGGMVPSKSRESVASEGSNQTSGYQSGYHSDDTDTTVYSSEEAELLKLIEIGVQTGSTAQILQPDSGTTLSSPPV
T3 sequence (Q02763 770-1124 limits assumed, change not shown): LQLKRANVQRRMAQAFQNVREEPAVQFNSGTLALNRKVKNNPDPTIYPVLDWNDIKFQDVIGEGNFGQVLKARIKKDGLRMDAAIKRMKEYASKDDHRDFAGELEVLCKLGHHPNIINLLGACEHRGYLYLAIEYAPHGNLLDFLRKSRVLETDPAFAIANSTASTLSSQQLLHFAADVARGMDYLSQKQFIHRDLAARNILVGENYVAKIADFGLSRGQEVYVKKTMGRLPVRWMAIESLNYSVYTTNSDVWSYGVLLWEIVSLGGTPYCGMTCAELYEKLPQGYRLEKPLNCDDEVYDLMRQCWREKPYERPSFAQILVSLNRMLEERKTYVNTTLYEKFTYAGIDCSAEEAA

Row | IC50 [1] | IC50 (GST-VEGFR2) | IC50 [3] | SMILES | VEGF-C [2] | IC50 [2]
1 | 100 to 1000 nM | 1000 to 10000 nM | < 100 nM | COC(=O)Nc1nc2cc(S(=O)(=O)c3ccc(NC(=O)Nc4cc(C(F)(F)F)ccc4F)cc3)ccc2[nH]1 [Example 12, Methyl N-(5-(4-((2-fluoro-5-(trifluoromethyl)phenyl)aminocarbonylamino)phenylsulfonyl)-1H-benzimidazol-2-yl)carbamate] | − | 
2 | < 100 nM | < 100 nM | < 100 nM | O=C(Nc1ccc(Oc2ccc3nc(NC(=O)c4cccnc4)[nH]c3c2)cc1)Nc1cc(C(F)(F)F)ccc1F [Example 93, N-(5-(4-((2-Fluoro-5-(trifluoromethyl)phenyl)aminocarbonylamino)phenoxy)-1H-benzimidazol-2-yl)-3-pyridinecarboxamide] |  | 1000 to 10000 nM
3 | 100 to 1000 nM | 1000 to 10000 nM | < 100 nM | COC(=O)Nc1nc2ccc(Sc3ccc(NC(=O)Nc4cc(OC)cc(OC)c4)cc3)cc2[nH]1 [Example 5, Methyl N-(5-(4-((3,5-dimethoxyphenyl)aminocarbonylamino)phenylthio)-1H-benzimidazol-2-yl)carbamate] | − | 
4 | < 100 nM | < 100 nM | < 100 nM | COC(=O)Nc1nc2ccc(Oc3ccc(NC(=O)Nc4cc(C(F)(F)F)ccc4F)cc3)cc2o1 [Example 115, Methyl N-(6-(4-((2-fluoro-5-(trifluoromethyl)phenyl)aminocarbonylamino)phenoxy)benzoxazol-2-yl)carbamate] |  | < 100 nM
5 | < 100 nM | < 100 nM | < 100 nM | O=C(Nc1ccc(Oc2ccc3[nH]c(NC(=O)c4c[nH]cn4)nc3c2)cc1)Nc1cc(C(F)(F)F)ccc1F [Example 98, N-(5-(4-((2-Fluoro-5-(trifluoromethyl)phenyl)aminocarbonylamino)phenoxy)-1H-benzimidazol-2-yl)(1H-imidazole-4-carboxamide)dihydrochloride] |  | 100 to 1000 nM
6 | < 100 nM | < 100 nM | < 100 nM | COC(=O)Nc1nc2cc(Sc3ccc(NC(=O)Nc4cc(C(F)(F)F)ccc4Cl)cc3)ccc2[nH]1.Cl [Example 51, Methyl N-(5-(4-((2-chloro-5-(trifluoromethyl)phenyl)aminocarbonylamino)phenylthio)-1H-benzimidazol-2-yl)carbamate hydrochloride] | − | 
7 | < 100 nM | < 100 nM | < 100 nM | O=C(Nc1ccc(Oc2ccc3[nH]c(NC(=O)OCc4ccccc4)nc3c2)cc1)Nc1cc(C(F)(F)F)ccc1F [Example 81, Benzyl N-(5-(4-((2-fluoro-5-(trifluoromethyl)phenyl)aminocarbonylamino)phenoxy)-1H-benzimidazol-2-yl)carbamate] | − | 
8 | < 100 nM | < 100 nM | < 100 nM | COC(=O)Nc1nc2ccc(Oc3ccc(NC(=O)Nc4cc(C(F)(F)F)ccc4F)cc3)cc2s1 [Example 64, Methyl N-(6-(4-((6-fluoro-3-(trifluoromethyl)phenyl)aminocarbonylamino)phenoxy)-benzthiazol-2-yl)carbamate] |  | < 100 nM
9 | < 100 nM | < 100 nM | < 100 nM | COC(=O)Nc1nc2cc(Oc3ccc(NC(=O)Nc4cc(C(F)(F)F)ccc4F)cn3)ccc2[nH]1 [Example 37, Methyl N-(5-(5-((2-fluoro-5-(trifluoromethyl)phenyl)aminocarbonylamino)-2-pyridyloxy)-1H-benzimidazol-2-yl)carbamate] | − | 
10 | < 100 nM | 100 to 1000 nM | 100 to 1000 nM | COC(=O)Nc1nc2cc([S+]([O-])c3ccc(NC(=O)Nc4cc(C(F)(F)F)ccc4F)cc3)ccc2[nH]1 (centres unmarked) [Example 13, Methyl N-(5-(4-((2-fluoro-5-(trifluoromethyl)phenyl)aminocarbonylamino)phenylsulfinyl)-1H-benzimidazol-2-yl)carbamate] | − | 
11 | < 100 nM | < 100 nM | < 100 nM | COC(=O)Nc1nc2nc(Oc3ccc(NC(=O)Nc4cc(C(F)(F)F)ccc4F)cc3)ccc2[nH]1 [Example 69, dihydrochloride] |  | 100 to 1000 nM
12 | < 100 nM |  | 100 to 1000 nM | O=C(O)CCC(=O)Nc1nc2cc(Oc3ccc(NC(=O)Nc4cc(C(F)(F)F)ccc4F)cc3)ccc2[nH]1 [Example 32, 3-(N-(5-(4-((2-Fluoro-5-(trifluoromethyl)phenyl)aminocarbonylamino)phenoxy)-1H-benzimidazol-2-yl)carbamoyl)propionic acid] |  | 1000 to 10000 nM
13 | < 100 nM |  | < 100 nM | COCCOCC(=O)Nc1nc2ccc(Oc3ccc(NC(=O)Nc4cc(C(F)(F)F)ccc4F)cc3)cc2[nH]1 [Example 34] | − | 
14 | 100 to 1000 nM |  | < 100 nM | COC(=O)Nc1nc2ncc(Oc3ccc(NC(=O)Nc4cc(C(F)(F)F)ccc4F)cc3)cc2[nH]1.Cl [Example 75, Methyl N-(6-(4-((2-fluoro-5-(trifluoromethyl)phenyl)aminocarbonylamino)phenoxy)-3,4-diaza-1H-indole-2-yl)carbamate dihydrochloride] | − | 
15 | < 100 nM |  | < 100 nM | COC(=O)Nc1nc2cc(Oc3ccc(NC(=O)Nc4cccc(Br)c4)cc3)ccc2[nH]1 [Example 40, Methyl N-(5-(4-((3-bromophenyl)aminocarbonylamino)phenoxy)-1H-benzimidazol-2-yl)carbamate] | − | 
16 | < 100 nM |  | < 100 nM | COC(=O)Nc1nc2cc(Oc3ccc(NC(=O)Nc4cccc(C(C)(C)C)c4)cc3)ccc2[nH]1 [Example 21, Methyl N-(5-(4-((3-t-butylphenyl)aminocarbonylamino)phenoxy)-1H-benzimidazol-2-yl)carbamate] | − | 

Row | SMILES | IC50 [1] | IC50 (GST-VEGFR2) | IC50 [3] | VEGF-C [2] | IC50 [2]
17 | CC(=O)Nc1nc2cc(Oc3ccc(NC(=O)Nc4cc(C(F)(F)F)ccc4F)nc3)ccc2[nH]1 [Example 36, N-(5-(2-((2-fluoro-5-(trifluoromethyl)phenyl)aminocarbonylamino)-5-pyridyloxy)-1H-benzimidazol-2-yl)acetamide dihydrochloride] | < 100 nM |  | < 100 nM | − | 
